Assay results as given in patent US20030203372A1, “Analysis method” (priority 2000, published 2003).
Each block holds one molecule with its values, some of them ahead of it.

How the values were obtained:
HIF = test: HRE-Luc luciferase reporter assay of HIF activity in transiently transfected 293T cells (evaluation of HIF prolyl hydroxylase inhibitors and EGLN3 isoforms); format: cell-based, human; settings: normoxia, even when full length EGLN3 protein or EGLN3 splice variant was over-expressed; MIMO 0.4 mM
Experimental: As discussed above, the stability of HIF is controlled by proline hydroxylation, catalysed by the product of the EGLN3 gene which renders the HIF protein unstable. EGLN3 is only active in normoxia since the reaction that it catalyses requires oxygen.
Plasmid CMV-SVFL1 expresses full length EGLN3. Plasmid CMV-SVFL2 expresses the EGLN3 splice variant.
Three plasmid transfections were performed and pCIneo was used as the “stuffing”/control plasmid to fill the vacancies.
Transfected 293 cells were incubated under normoxia till the end of the experiment.

[1] = Hypoxia response of the referenced genes/sequences, summary in cross-reference Table 26; format: cell-based, human; settings: direction of expression change of the gene/sequence in response to hypoxia
[2] = system: primary human macrophages; test: Custom gene array, macrophages exposed to hypoxia and/or IL-15; format: cell-based; settings: relative to no cytokine, 20% oxygen = 1
Experimental: Gene expression levels were measured and compared using the custom gene array. In data analysis per-gene normalisation was set up such that expression values represent the fold-change compared with the expression in untreated normoxic cells. Genes which are increased in expression in response to TNFα by at least 2-fold, in either normoxic or hypoxic cells, are shown in Table 20. Genes which are decreased in expression in response to TNFα by at least 2-fold, in either normoxic or hypoxic cells, are shown in Table 21.
The cytokine IL-15 is implicated in several disease in which macrophages and hypoxia both feature as elements of the inflammatory state, such as in atherosclerosis (Wuttge D M et al Am J Pathol. 2001 159:417-23) and rheumatoid arthritis (McInnes I B et al Immunol Today. 1998 19:75-9). Although the main target of IL-15 is T-cells effects have also been shown on monocytes (Badolato R et al Blood. 1997 90:2804-9). Therefore genes which respond to both hypoxia and IL-15 are especially likely to be relevant to disease processes and have utility in the design of therapeutic products. Genes which are increased in expression in response to IL-15 by at least 2-fold, in either normoxic or hypoxic cells, are shown in Table 24. Genes which are decreased in expression in response to IL-15 by at least 2-fold, in either normoxic or hypoxic cells, are shown in Table 25.

[3] = system: primary human macrophages; test: Custom gene array, macrophages exposed to hypoxia and/or TNFα; format: cell-based; settings: relative to no cytokine, 20% oxygen = 1

Molecule: CCOC(=O)c1ccc(O)c(O)c1 [EDB]
HIF-PH inhibition (HIF): work as HIF-PH inhibitors

Molecule: Alpha-2-macroglobulin
Hypoxia response [1]: Repression

Molecule: Endothelin 1
Hypoxia response [1]: Repression

Aldolase C expression (clone p1A19, Seq ID 260) ([2]; 0.1% oxygen): 1.30 | Fatty-acid-Coenzyme A ligase, long-chain 2 expression (clone p1J11, Seq ID 466) ([2]; 0.1% oxygen): 1.29 | Glucose phosphate isomerase expression (clone p1C6, Seq ID 368) ([2]; 0.1% oxygen): 3.13 | Lactate dehydrogenase A expression (clone p1A8, Seq ID 224) ([2]; 0.1% oxygen): 2.29 | Lactate dehydrogenase A expression (clone p1A9, Seq ID 224) ([2]; 0.1% oxygen): 1.83 | Neutral sphingomyelinase (N-SMase) activation associated factor expression (clone p1J22, Seq ID 428) ([2]; 0.1% oxygen): 0.11 | Proline 4-hydroxylase, alpha polypeptide II expression (clone p1B4, Seq ID 350) ([2]; 0.1% oxygen): 1.34 | Triosephosphate isomerase 1 expression (clone p1A20, Seq ID 262) ([2]; 0.1% oxygen): 1.22 | Uridine 5′ monophosphate hydrolase 1 expression (clone p1I7, Seq ID 50) ([2]; 0.1% oxygen): 3.61 | Aldolase C expression (clone p1A19, Seq ID 260) ([2]; 20% oxygen): 0.35 | Fatty-acid-Coenzyme A ligase, long-chain 2 expression (clone p1J11, Seq ID 466) ([2]; 20% oxygen): 1.64 | Glucose phosphate isomerase expression (clone p1C6, Seq ID 368) ([2]; 20% oxygen): 0.57 | Lactate dehydrogenase A expression (clone p1A8, Seq ID 224) ([2]; 20% oxygen): 0.48 | Lactate dehydrogenase A expression (clone p1A9, Seq ID 224) ([2]; 20% oxygen): 0.49 | Neutral sphingomyelinase (N-SMase) activation associated factor expression (clone p1J22, Seq ID 428) ([2]; 20% oxygen): 1.51 | Proline 4-hydroxylase, alpha polypeptide II expression (clone p1B4, Seq ID 350) ([2]; 20% oxygen): 0.50 | Triosephosphate isomerase 1 expression (clone p1A20, Seq ID 262) ([2]; 20% oxygen): 0.36 | Uridine 5′ monophosphate hydrolase 1 expression (clone p1I7, Seq ID 50) ([2]; 20% oxygen): 4.98
Molecule: IL-15
ABL expression (clone p1H8, Seq ID 182) ([2]; 0.1% oxygen): 0.09 | Abstrakt expression (clone p1C14, Seq ID 384) ([2]; 0.1% oxygen): 1.24 | Adipophilin expression (clone p1B6, Seq ID 314) ([2]; 0.1% oxygen): 2.39 | Adipophilin expression (clone p1B7, Seq ID 314) ([2]; 0.1% oxygen): 2.02 | Adipophilin expression (clone p1B8, Seq ID 314) ([2]; 0.1% oxygen): 1.42 | Adipophilin expression (clone p1B9, Seq ID 314) ([2]; 0.1% oxygen): 1.66 | D123 expression (clone p1C7, Seq ID 370) ([2]; 0.1% oxygen): 0.90 | EST expression (clone p1D19, Seq ID 144) ([2]; 0.1% oxygen): 1.39 | EST expression (clone p1H6, Seq ID 192) ([2]; 0.1% oxygen): 0.67 | EST expression (clone p2A14, Seq ID 446) ([2]; 0.1% oxygen): 0.51 | GAPDH expression (clone p1A11, Seq ID 254) ([2]; 0.1% oxygen): 4.32 | Glycogen synthase 1 expression (clone p1G24, Seq ID 276) ([2]; 0.1% oxygen): 0.55 | Hypoxia-inducible protein 2 expression (clone p1D8, Seq ID 272) ([2]; 0.1% oxygen): 0.62 | Keratin 6B expression (clone p1K14, Seq ID 422) ([2]; 0.1% oxygen): 0.11 | Metallothionein 2A expression (clone p1A23, Seq ID 266) ([2]; 0.1% oxygen): 3.08 | SCYA2 expression (clone p1P5, Seq ID 396) ([2]; 0.1% oxygen): 1.37 | SCYA7 expression (clone p1J5, Seq ID 464) ([2]; 0.1% oxygen): 1.61 | SCYA8 expression (clone p1I21, Seq ID 480) ([2]; 0.1% oxygen): 1.55 | cDNA: FLJ23019 fis, clone LNG00916 expression (clone p1J16, Seq ID 454) ([2]; 0.1% oxygen): 7.27 | hypothetical protein FLJ10206 expression (clone p1J6, Seq ID 40) ([2]; 0.1% oxygen): 0.18 | hypothetical protein FLJ22690 expression (clone p1H5, Seq ID 206) ([2]; 0.1% oxygen): 1.59 | hypothetical protein MGC4549 expression (clone p1I12, Seq ID 152) ([2]; 0.1% oxygen): 0.28 | ABL expression (clone p1H8, Seq ID 182) ([2]; 20% oxygen): 1.22 | Abstrakt expression (clone p1C14, Seq ID 384) ([2]; 20% oxygen): 0.40 | Adipophilin expression (clone p1B6, Seq ID 314) ([2]; 20% oxygen): 0.37 | Adipophilin expression (clone p1B7, Seq ID 314) ([2]; 20% oxygen): 0.30 | Adipophilin expression (clone p1B8, Seq ID 314) ([2]; 20% oxygen): 0.23 | Adipophilin expression (clone p1B9, Seq ID 314) ([2]; 20% oxygen): 0.41 | D123 expression (clone p1C7, Seq ID 370) ([2]; 20% oxygen): 0.47 | EST expression (clone p1D19, Seq ID 144) ([2]; 20% oxygen): 2.27 | EST expression (clone p1H6, Seq ID 192) ([2]; 20% oxygen): 1.95 | EST expression (clone p2A14, Seq ID 446) ([2]; 20% oxygen): 1.08 | GAPDH expression (clone p1A11, Seq ID 254) ([2]; 20% oxygen): 0.52 | Glycogen synthase 1 expression (clone p1G24, Seq ID 276) ([2]; 20% oxygen): 0.88 | Hypoxia-inducible protein 2 expression (clone p1D8, Seq ID 272) ([2]; 20% oxygen): 1.25 | Keratin 6B expression (clone p1K14, Seq ID 422) ([2]; 20% oxygen): 1.48 | Metallothionein 2A expression (clone p1A23, Seq ID 266) ([2]; 20% oxygen): 1.26 | SCYA2 expression (clone p1P5, Seq ID 396) ([2]; 20% oxygen): 4.51 | SCYA7 expression (clone p1J5, Seq ID 464) ([2]; 20% oxygen): 3.27 | SCYA8 expression (clone p1I21, Seq ID 480) ([2]; 20% oxygen): 3.77 | cDNA: FLJ23019 fis, clone LNG00916 expression (clone p1J16, Seq ID 454) ([2]; 20% oxygen): 5.76 | hypothetical protein FLJ10206 expression (clone p1J6, Seq ID 40) ([2]; 20% oxygen): 1.28 | hypothetical protein FLJ22690 expression (clone p1H5, Seq ID 206) ([2]; 20% oxygen): 2.37 | hypothetical protein MGC4549 expression (clone p1I12, Seq ID 152) ([2]; 20% oxygen): 1.64

Fatty-acid-Coenzyme A ligase, long-chain 2 expression (clone p1J11, Seq ID 466) ([3]; 0.1% oxygen): 1.28 | Glucose phosphate isomerase expression (clone p1C6, Seq ID 368) ([3]; 0.1% oxygen): 1.43 | Neutral sphingomyelinase (N-SMase) activation associated factor expression (clone p1J22, Seq ID 428) ([3]; 0.1% oxygen): 0.11 | Fatty-acid-Coenzyme A ligase, long-chain 2 expression (clone p1J11, Seq ID 466) ([3]; 20% oxygen): 1.63 | Glucose phosphate isomerase expression (clone p1C6, Seq ID 368) ([3]; 20% oxygen): 2.14
Molecule: IL-17
Decidual protein induced by progesterone expression (clone p1C16, Seq ID 388) ([3]; 0.1% oxygen): 0.51 | EST expression (clone p1H4, Seq ID 214) ([3]; 0.1% oxygen): 0.58 | EST expression (clone p2A14, Seq ID 446) ([3]; 0.1% oxygen): 0.40 | GAPDH expression (clone p1A11, Seq ID 254) ([3]; 0.1% oxygen): 1.84 | GRO1 expression (clone p1I24, Seq ID 486) ([3]; 0.1% oxygen): 1.28 | GRO2 expression (clone p1I19, Seq ID 482) ([3]; 0.1% oxygen): 1.43 | Interleukin 8 expression (clone p1B14, Seq ID 252) ([3]; 0.1% oxygen): 7.13 | Interleukin 8 expression (clone p1B15, Seq ID 252) ([3]; 0.1% oxygen): 9.71 | Interleukin 8 expression (clone p1B16, Seq ID 252) ([3]; 0.1% oxygen): 12.2 | Plasminogen activator inhibitor, type 1 expression (clone p1B18, Seq ID 236) ([3]; 0.1% oxygen): 0.78 | SCYA2 expression (clone p1P5, Seq ID 396) ([3]; 0.1% oxygen): 0.58 | SCYA4 expression (clone p1K8, Seq ID 408) ([3]; 0.1% oxygen): 0.83 | cDNA YI27F12 expression (clone p1E15, Seq ID 108) ([3]; 0.1% oxygen): 0.56 | hypothetical protein FLJ10206 expression (clone p1J6, Seq ID 40) ([3]; 0.1% oxygen): 0.23 | Decidual protein induced by progesterone expression (clone p1C16, Seq ID 388) ([3]; 20% oxygen): 0.73 | EST expression (clone p1H4, Seq ID 214) ([3]; 20% oxygen): 0.49 | EST expression (clone p2A14, Seq ID 446) ([3]; 20% oxygen): 0.56 | GAPDH expression (clone p1A11, Seq ID 254) ([3]; 20% oxygen): 2.60 | GRO1 expression (clone p1I24, Seq ID 486) ([3]; 20% oxygen): 2.29 | GRO2 expression (clone p1I19, Seq ID 482) ([3]; 20% oxygen): 2.26 | Glycogen synthase 1 expression (clone p1G24, Seq ID 276) ([3]; 20% oxygen): 0.34 | Hypoxia-inducible protein 2 expression (clone p1D8, Seq ID 272) ([3]; 20% oxygen): 0.44 | Interleukin 8 expression (clone p1B14, Seq ID 252) ([3]; 20% oxygen): 9.34 | Interleukin 8 expression (clone p1B15, Seq ID 252) ([3]; 20% oxygen): 7.36 | Interleukin 8 expression (clone p1B16, Seq ID 252) ([3]; 20% oxygen): 9.52 | Plasminogen activator inhibitor, type 1 expression (clone p1B18, Seq ID 236) ([3]; 20% oxygen): 0.49 | SCYA2 expression (clone p1P5, Seq ID 396) ([3]; 20% oxygen): 2.12 | SCYA4 expression (clone p1K8, Seq ID 408) ([3]; 20% oxygen): 2.48 | hypothetical protein FLJ10206 expression (clone p1J6, Seq ID 40) ([3]; 20% oxygen): 0.22
